Key:
[1] = target: T1, AXL (Homo sapiens, UniProt P30530); test: TR-FRET kinase activity assay, AXL; format: biochemical; conditions: ATP at Km, 60 minutes
T1 sequence (P30530 26-894): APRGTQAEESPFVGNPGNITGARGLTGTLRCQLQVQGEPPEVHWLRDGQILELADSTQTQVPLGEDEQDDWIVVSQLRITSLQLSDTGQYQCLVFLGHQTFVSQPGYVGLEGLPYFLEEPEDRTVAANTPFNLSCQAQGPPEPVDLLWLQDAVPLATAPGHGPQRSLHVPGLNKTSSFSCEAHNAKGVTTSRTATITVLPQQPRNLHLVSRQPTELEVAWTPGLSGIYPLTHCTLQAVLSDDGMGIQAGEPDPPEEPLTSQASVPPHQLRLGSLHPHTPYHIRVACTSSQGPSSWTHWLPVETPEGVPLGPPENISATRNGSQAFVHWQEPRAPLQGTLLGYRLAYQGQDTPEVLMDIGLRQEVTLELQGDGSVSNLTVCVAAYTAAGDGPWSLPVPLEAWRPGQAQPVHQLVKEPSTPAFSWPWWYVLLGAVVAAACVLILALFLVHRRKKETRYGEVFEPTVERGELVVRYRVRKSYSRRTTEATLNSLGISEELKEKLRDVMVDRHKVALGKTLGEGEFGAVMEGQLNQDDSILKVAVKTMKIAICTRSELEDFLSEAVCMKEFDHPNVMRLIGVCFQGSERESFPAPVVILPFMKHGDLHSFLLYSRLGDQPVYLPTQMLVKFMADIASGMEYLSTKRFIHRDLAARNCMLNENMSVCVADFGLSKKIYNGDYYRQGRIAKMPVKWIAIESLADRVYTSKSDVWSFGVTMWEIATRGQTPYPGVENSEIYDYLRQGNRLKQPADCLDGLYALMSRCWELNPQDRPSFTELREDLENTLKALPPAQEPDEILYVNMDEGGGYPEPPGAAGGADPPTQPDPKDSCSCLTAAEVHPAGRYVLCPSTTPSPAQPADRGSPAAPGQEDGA
How it was run: (§1)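 Compounds were tested against each kinase with ATP set at its own Km and a labelled tyrosine peptide substrate. Following one hour at room temperature in buffer containing 10 mM MgCl2 and 1 mM DTT, phosphorylated product was detected by Europium antibody TR-FRET after EDTA quench, and IC50 values were calculated.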

[2] = target: T2, MERTK (Homo sapiens, UniProt Q12866); test: TR-FRET kinase activity assay, MERTK; format: biochemical; conditions: for IC50: TR-FRET activity assay, ATP at Km, 60 minutes, read-out: Mer IC50
T2 sequence (Q12866 21-999): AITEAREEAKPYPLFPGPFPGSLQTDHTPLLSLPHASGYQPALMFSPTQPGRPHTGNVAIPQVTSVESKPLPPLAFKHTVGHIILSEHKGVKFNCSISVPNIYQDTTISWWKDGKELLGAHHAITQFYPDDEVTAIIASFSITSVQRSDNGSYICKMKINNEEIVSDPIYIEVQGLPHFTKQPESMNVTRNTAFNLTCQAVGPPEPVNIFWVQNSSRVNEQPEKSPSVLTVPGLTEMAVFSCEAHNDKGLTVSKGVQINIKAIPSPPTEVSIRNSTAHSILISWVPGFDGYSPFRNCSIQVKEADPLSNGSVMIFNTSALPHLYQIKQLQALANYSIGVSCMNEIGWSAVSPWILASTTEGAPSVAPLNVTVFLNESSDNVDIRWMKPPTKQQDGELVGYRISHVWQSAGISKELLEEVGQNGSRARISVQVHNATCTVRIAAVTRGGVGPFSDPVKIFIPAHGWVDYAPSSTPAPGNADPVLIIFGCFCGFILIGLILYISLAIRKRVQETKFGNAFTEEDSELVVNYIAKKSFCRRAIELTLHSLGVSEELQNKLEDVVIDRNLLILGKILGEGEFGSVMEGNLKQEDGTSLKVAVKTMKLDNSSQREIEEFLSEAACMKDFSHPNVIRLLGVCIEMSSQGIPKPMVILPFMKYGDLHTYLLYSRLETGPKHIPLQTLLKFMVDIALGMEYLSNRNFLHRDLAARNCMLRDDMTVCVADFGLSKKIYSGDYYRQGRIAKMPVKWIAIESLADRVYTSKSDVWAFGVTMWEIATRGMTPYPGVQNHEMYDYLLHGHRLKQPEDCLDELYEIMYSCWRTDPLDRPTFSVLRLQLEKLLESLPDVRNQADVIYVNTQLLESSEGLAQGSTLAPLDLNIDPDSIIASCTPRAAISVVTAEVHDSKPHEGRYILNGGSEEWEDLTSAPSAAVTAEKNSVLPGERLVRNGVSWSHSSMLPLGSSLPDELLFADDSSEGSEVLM
How it was run: as §1

[3] = ratio calculated as FLT3 IC50/Mer IC50
[4] = ratio of Mer to FLT3: FLT3 IC50/Mer IC50

SMILES | IC50 [1] | IC50 [2] | FLT3/Mer ratio (FLT3 IC50/Mer IC50) [2, 3] | FLT3/Mer ratio (FLT3 IC50/Mer IC50) [2, 4]
C[C@@H](CC(F)(F)F)Nc1ncc2c(-c3ccc([S@](C)(=N)=O)nc3)cc([C@H]3CC[C@H](O)CC3)n2n1 [Compound 540] | ≤ 100 nM | ≤ 100 nM | +++ (“+++” represents a ratio of >100) | –
COC[C@H](C)Nc1ncc2c(-c3cnn(C(C)(C)C(=O)N4CCCC5(COC5)C4)c3)cc([C@H]3CC[C@H](O)CC3)n2n1 [Compound 516] | ≤ 100 nM | ≤ 100 nM | +++ (“+++” represents a ratio of >100) | –
CC(C)(O)C1CN(c2cc(-c3cc([C@H]4CC[C@H](O)CC4)n4nc(NCCOC(F)F)ncc34)ccn2)CCO1 (stereo partly drawn) [Compound 557] | ≤ 100 nM | ≤ 100 nM | +++ (“+++” represents a ratio of >100) | –
COC[C@H](C)Nc1ncc2c(-c3cnn(C(C)(C)C(=O)N4CCOCC4)c3)cc([C@H]3CC[C@](C)(O)CC3)n2n1 [Compound 560] | ≤ 100 nM | ≤ 100 nM | +++ (“+++” represents a ratio of >100) | –
COC[C@H](C)Nc1ncc2c(-c3cnn(C(C)(C)C(=O)N4CCOCC4)c3)cc([C@H]3CC[C@@H](O)CC3)n2n1 [Compound 547] | ≤ 100 nM | ≤ 100 nM | +++ (“+++” represents a ratio of >100) | –
COC[C@H](C)Nc1ncc2c(-c3ccnc(N4CCOCC4)c3)cc([C@H]3CC[C@](C)(O)CC3)n2n1 [Compound 549] | ≤ 100 nM | ≤ 100 nM | +++ (“+++” represents a ratio of >100) | –
C[C@@H](CC(F)(F)F)Nc1ncc2c(-c3cncc([S@](C)(=N)=O)c3)cc([C@H]3CC[C@H](O)CC3)n2n1 [Compound 582] | ≤ 100 nM | ≤ 100 nM | +++ (“+++” represents a ratio of >100) | –
C[C@H](Nc1ncc2c(-c3cnn(C4COC4)c3)cc([C@H]3CC[C@H](O)CC3)n2n1)C(F)(F)F [Compound 510] | 100 to 1000 nM | ≤ 100 nM | +++ (“+++” represents a ratio of >100) | –
COCC(C)Nc1ncc2c(-c3ccc4cc[nH]c4c3)cc(C3CCC(O)CC3)n2n1 (stereo not drawn) [Compound 538] | 100 to 1000 nM | ≤ 100 nM | +++ (“+++” represents a ratio of >100) | –
COC[C@H](C)Nc1ncc2c(-c3ccnc([S@](C)(=N)=O)c3)cc([C@H]3CC[C@H](O)CC3)n2n1 [Compound 575] | 100 to 1000 nM | ≤ 100 nM | +++ (“+++” represents a ratio of >100) | –
COC[C@H](C)Nc1ncc2c(-c3cnn(C4COC4)c3)cc(C3CCC(=O)NC3)n2n1 (stereo partly drawn) [Compound 526] | 1000 to 10000 nM | ≤ 100 nM | ++ (“++” represents a ratio of between 10 and 100) | –
COCC(C)Nc1ncc2c(-c3ccc(C(C)N4CCOCC4)cc3)cc(C3CCC(O)CC3)n2n1 (stereo not drawn) [Compound 143] | ≤ 100 nM | ≤ 100 nM | – | ++ (“++” represents a ratio of between 10 and 100)
C[C@@H](CC(F)(F)F)Nc1ncc2c(-c3ccnc([S@](C)(=N)=O)c3)cc([C@H]3CC[C@H](O)CC3)n2n1 [Compound 580] | ≤ 100 nM | ≤ 100 nM | +++ (“+++” represents a ratio of >100) | –
CCOCC(C)Nc1ncc2c(-c3ccc(CN4CCN(C)CC4)cc3)cc(C3CCC(O)CC3)n2n1 (stereo not drawn) [Compound 138] | 100 to 1000 nM | ≤ 100 nM | – | ++ (“++” represents a ratio of between 10 and 100)
COC[C@H](C)Nc1ncc2c(-c3ccc(CN4CCOCC4)cc3)cc([C@H]3CC[C@H](O)CC3)n2n1 [Compound 140] | ≤ 100 nM | ≤ 100 nM | – | +++ (“+++” represents a ratio of >100)
COC[C@H](C)Nc1ncc2c(-c3cncc([S@](C)(=N)=O)c3)cc([C@H]3CC[C@@H](O)CC3)n2n1 [Compound 572] | 100 to 1000 nM | ≤ 100 nM | +++ (“+++” represents a ratio of >100) | –
COC[C@H](C)Nc1ncc2c(-c3ccnc(N4CCOCC4)c3)cc([C@H]3CC[C@@](C)(O)CC3)n2n1 [Compound 548] | ≤ 100 nM | ≤ 100 nM | +++ (“+++” represents a ratio of >100) | –
COC[C@H](C)Nc1ncc2c(-c3cnn(C(C)(C)C(=O)N4CCO[C@@H](C(C)(C)O)C4)c3)cc([C@H]3CC[C@H](O)CC3)n2n1 [Compound 585] | ≤ 100 nM | ≤ 100 nM | +++ (“+++” represents a ratio of >100) | –
C[C@@H](COC(F)F)Nc1ncc2c(-c3cnn(C(C)(C)C(=O)N4CCN(C)CC4)c3)cc([C@H]3CC[C@H](O)CC3)n2n1 [Compound 593] | ≤ 100 nM | ≤ 100 nM | +++ (“+++” represents a ratio of >100) | –
COC[C@H](C)Nc1ncc2c([C@H]3CC[C@H](C(=O)N4CC5(COC5)C4)CC3)cc([C@H]3CC[C@H](O)CC3)n2n1 [Compound 578] | 100 to 1000 nM | ≤ 100 nM | +++ (“+++” represents a ratio of >100) | –
C[C@@H](Nc1ncc2c(-c3cnn(C4COC4)c3)cc([C@H]3CC[C@H](O)CC3)n2n1)C(F)(F)F [Compound 527] | 100 to 1000 nM | ≤ 100 nM | +++ (“+++” represents a ratio of >100) | –
COCC(C)Nc1ncc2c(-c3cnn(C4COC4)c3)cc(C3CCNC(=O)C3)n2n1 (mixture of isomers) [Compound 592] | 1000 to 10000 nM | ≤ 100 nM | +++ (“+++” represents a ratio of >100) | –
CC(Nc1ncc2c(-c3cnn(C4COC4)c3)cc(C3CCC(O)CC3)n2n1)c1cccnc1 (racemic) [Compound 536] | 100 to 1000 nM | ≤ 100 nM | +++ (“+++” represents a ratio of >100) | –
COC[C@H](C)Nc1ncc2c(-c3ccc([S@](C)(=N)=O)nc3)cc([C@H]3CC[C@H](O)CC3)n2n1 [Compound 532] | ≤ 100 nM | ≤ 100 nM | +++ (“+++” represents a ratio of >100) | –

Reference: patent US11040981B2, “Pyrrolotriazine compounds and methods of inhibiting TAM kinases” (Syros Pharmaceuticals, Inc., priority 2017, dated 2021)
